Like-named read-outs stand apart in the source and are kept apart here.
Legend:
[1] = system: Aβ40 in conditioned medium of cells stably expressing Amyloid Precursor Protein (APP); assay: In vitro BACE cell-based assay (Aβ40 sandwich ELISA); settings: Homo sapiens
Procedure, shortened: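 Aβ40 in supernatants was measured by time-resolved fluorescence sandwich ELISA using pAb40 capture and biotinylated 6E10 detection, with antibody incubations at 4 °C. Stable APP cells were exposed to compounds for 24 h in a 10-point series (top dose 100 or 10 µM, 0.1% DMSO). IC50 was fitted from the concentration-response.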

[2] = molecular target: Beta Secretase enzyme (BACE) (Homo sapiens (Human), UniProt P56817); assay: In vitro enzymatic BACE FRET assay; assay type: biochemical; settings: read-out: BACE 1 FRET assay IC50
Beta Secretase enzyme (BACE), sequence (P56817 46-501): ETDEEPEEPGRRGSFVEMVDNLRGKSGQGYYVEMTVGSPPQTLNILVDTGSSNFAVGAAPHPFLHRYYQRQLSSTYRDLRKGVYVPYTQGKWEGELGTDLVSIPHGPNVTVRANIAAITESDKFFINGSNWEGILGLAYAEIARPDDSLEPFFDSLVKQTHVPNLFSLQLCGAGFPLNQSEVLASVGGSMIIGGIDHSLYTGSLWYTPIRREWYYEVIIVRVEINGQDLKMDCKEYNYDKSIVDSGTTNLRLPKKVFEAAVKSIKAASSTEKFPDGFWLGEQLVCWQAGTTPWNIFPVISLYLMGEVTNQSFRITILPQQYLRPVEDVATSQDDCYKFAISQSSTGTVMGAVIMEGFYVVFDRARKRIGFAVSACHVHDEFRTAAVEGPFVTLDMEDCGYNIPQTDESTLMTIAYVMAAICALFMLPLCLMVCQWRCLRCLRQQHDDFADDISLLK
Procedure, shortened: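 A quenched fluorophore-peptide spanning the BACE cleavage site served as substrate at 50 nM, with one-hour incubation in pH 4.2 acetate buffer containing 100 uM genapol and 10% DMSO final. Fluorescence was measured after quenching with Tris to neutral pH.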

[3] = molecular target: Cathepsin D (Cat D) (Homo sapiens (Human), UniProt P07339); assay: In vitro enzymatic Cathepsin D (Cat D) FRET assay; assay type: biochemical; settings: read-out: CatD IC50
Cathepsin D (Cat D), sequence (P07339 65-412, species assumed): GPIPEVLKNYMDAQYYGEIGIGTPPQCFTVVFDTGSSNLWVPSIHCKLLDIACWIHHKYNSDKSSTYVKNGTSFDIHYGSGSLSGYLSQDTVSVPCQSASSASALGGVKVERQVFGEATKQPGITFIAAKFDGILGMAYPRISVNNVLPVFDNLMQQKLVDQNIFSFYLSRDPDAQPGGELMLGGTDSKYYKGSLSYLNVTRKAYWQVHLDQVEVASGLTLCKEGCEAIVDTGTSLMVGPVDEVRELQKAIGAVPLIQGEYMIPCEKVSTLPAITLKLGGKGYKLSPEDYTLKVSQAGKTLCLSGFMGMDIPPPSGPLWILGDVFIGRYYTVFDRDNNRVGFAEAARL
Procedure, shortened: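 CHO-expressed recombinant Cat D cleaves a fluorophore/quencher FRET peptide (20 nM) in 0.05 M citrate pH 3.5, 5 mM CHAPS, 10% DMSO final, over 1 h. Tris addition neutralizes pH to stop the reaction; fluorescence read at excitation 500 nm, emission 580 nm.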

[4] = HEK293, average IC50, HEK cell assay, read-out: HEK cell assay IC50
[5] = average IC50, BACE enzyme assay
[6] = average IC50, cathepsin D enzyme assay
[7] = HEK293, HEK cells, average, read-out: HEK cell assay IC50
[8] = HEK293, average IC50, HEK cells, read-out: HEK cell assay IC50
[9] = HEK293, read-out: HEK cell assay IC50

| Compound | IC50 [1, 7] [µM] | IC50 ([2]; average) [µM] | IC50 ([3]; average) [µM] | IC50 [1, 8] [µM] | IC50 ([2]; average IC50) [µM] | IC50 ([3]; average IC50) [µM] | also measured |
| --- | --- | --- | --- | --- | --- | --- | --- |
| C[C@@]1(c2cc(Nc3nc4cc(Cl)ccc4o3)ccc2F)C[C@@H](C(F)(F)F)OC(N)=N1 [Example 30, N-(3-((4S,6S)-2-amino-4-methyl-6-(trifluoromethyl)-5,6-dihydro-4H-1,3-oxazin-4-yl)-4-fluorophenyl)-5-chlorobenzo[d]oxazol-2-amine] | – | – | – | – | – | – | IC50 [1, 4]: 2.88 µM; IC50 [2, 5]: 26.8 µM; IC50 [3, 6]: 162 µM |
| NC1=N[C@](CF)(c2cc(NC(=O)c3ncc(Cl)cc3F)ccc2F)C[C@@H](C(F)(F)F)O1 [Example 34, N-(3-((4S,6S)-2-amino-4-(fluoromethyl)-6-(trifluoromethyl)-5,6-dihydro-4H-1,3-oxazin-4-yl)-4-fluorophenyl)-5-chloro-3-fluoropicolinamide] | – | – | – | – | – | – | IC50 [1, 4]: 0.042 µM; IC50 [2, 5]: 0.051 µM; IC50 [3, 6]: > 400 µM |
| C[C@@]1(c2cc(NC(=O)c3ccc(Br)cn3)cc(Cl)c2F)C[C@@H](C(F)(F)F)OC(N)=N1 [Example 213, N-(3-((4S,6S)-2-amino-4-methyl-6-(trifluoromethyl)-5,6-dihydro-4H-1,3-oxazin-4-yl)-5-chloro-4-fluorophenyl)-5-bromopicolinamide] | 0.0319 | 0.01 | 739 | – | – | – | – |
| C[C@@]1(c2cc(NC(=O)c3ccc(C#N)cn3)cc(F)c2Cl)C[C@@H](C(F)(F)F)OC(N)=N1 [Example 238, N-(3-((4S,6S)-2-amino-4-methyl-6-(trifluoromethyl)-5,6-dihydro-4H-1,3-oxazin-4-yl)-4-chloro-5-fluorophenyl)-5-cyanopicolinamide] | 0.006 | 0.008 | 131 | – | – | – | – |
| C#CCOc1cnc(C(=O)Nc2cc(C)c(F)c([C@]3(CF)C[C@@H](C(F)(F)F)OC(N)=N3)c2)cn1 [Example 218, N-(3-((4S,6S)-2-amino-4-(fluoromethyl)-6-(trifluoromethyl)-5,6-dihydro-4H-1,3-oxazin-4-yl)-4-fluoro-5-methylphenyl)-5-(prop-2-yn-1-yloxy)pyrazine-2-carboxamide] | 0.002 | 0.001 | 188 | – | – | – | – |
| CC#Cc1ccc(-c2ccc(F)c([C@]3(CF)C[C@@H](C(F)(F)F)OC(N)=N3)c2)cn1 [Example 113, (4S,6S)-4-(2-fluoro-5-(6-(prop-1-yn-1-yl)pyridin-3-yl)phenyl)-4-(fluoromethyl)-6-(trifluoromethyl)-5,6-dihydro-4H-1,3-oxazin-2-amine] | – | – | – | – | – | – | IC50 [1, 4]: > 15.6 µM; IC50 [2, 5]: 27.4 µM; IC50 [3, 6]: 170 µM |
| NC1=N[C@](CF)(c2cc(Oc3cccc(C(F)(F)F)n3)ccc2F)C[C@@H](C(F)(F)F)O1 [Example 110, (4S,6S)-4-(2-fluoro-5-((6-(trifluoromethyl)pyridin-2-yl)oxy)phenyl)-4-(fluoromethyl)-6-(trifluoromethyl)-5,6-dihydro-4H-1,3-oxazin-2-amine] | – | – | – | 4.56 | 3.41 | 1820 | – |
| COc1ncc(NC(=O)c2ccc(Cl)cn2)cc1[C@]1(C)C[C@@H](C(F)(F)F)OC(N)=N1 [Example 147, N-(5-((4S,6S)-2-amino-4-methyl-6-(trifluoromethyl)-5,6-dihydro-4H-1,3-oxazin-4-yl)-6-methoxypyridin-3-yl)-5-chloropicolinamide] | – | – | – | 0.119 | 0.249 | 1420 | – |
| Cn1cc(NC(=O)c2ccc(C#N)cn2)cc([C@]2(C)C[C@@H](C(F)(F)F)OC(N)=N2)c1=O [Example 149, N-(5-((4S,6S)-2-amino-4-methyl-6-(trifluoromethyl)-5,6-dihydro-4H-1,3-oxazin-4-yl)-1-methyl-6-oxo-1,6-dihydropyridin-3-yl)-5-cyanopicolinamide] | – | – | – | 0.021 | 0.239 | > 400 | – |
| C[C@@]1(c2cc(Nc3ncnc4cc(C#N)cnc34)cnc2F)C[C@@H](C(F)(F)F)OC(N)=N1 [Example 75, 4-((5-((4S,6S)-2-amino-4-methyl-6-(trifluoromethyl)-5,6-dihydro-4H-1,3-oxazin-4-yl)-6-fluoropyridin-3-yl)amino)pyrido[3,2-d]pyrimidine-7-carbonitrile] | – | – | – | 0.0912 | 0.368 | > 400 | – |
| C[C@@]1(c2cc(NC(=O)c3cnc(OCC(F)(F)F)cn3)cc(Cl)c2F)C[C@@H](C(F)(F)F)OC(N)=N1 [Example 214, N-(3-((4S,6S)-2-amino-4-methyl-6-(trifluoromethyl)-5,6-dihydro-4H-1,3-oxazin-4-yl)-5-chloro-4-fluorophenyl)-5-(2,2,2-trifluoroethoxy)pyrazine-2-carboxamide] | 0.029 | 0.008 | > 400 | – | – | – | – |
| C[C@@]1(c2cc(NC(=O)c3ncc(C(F)(F)F)cc3Cl)cc(F)c2F)C[C@@H](C(F)(F)F)OC(N)=N1 [Example 187, N-(3-((4S,6S)-2-amino-4-methyl-6-(trifluoromethyl)-5,6-dihydro-4H-1,3-oxazin-4-yl)-4,5-difluorophenyl)-3-chloro-5-(trifluoromethyl)picolinamide] | 0.015 | 0.075 | > 400 | – | – | – | – |
| C[C@@]1(c2cc(NC(=O)c3cnc(OCc4ncco4)cn3)cc(F)c2F)C[C@@H](C(F)(F)F)OC(N)=N1 [Example 204, N-(3-((4S,6S)-2-amino-4-methyl-6-(trifluoromethyl)-5,6-dihydro-4H-1,3-oxazin-4-yl)-4,5-difluorophenyl)-5-(oxazol-2-ylmethoxy)pyrazine-2-carboxamide] | – | 0.006 | 1040 | – | – | – | IC50 [1, 9]: 0.003 µM |
| NC1=N[C@](CF)(c2cc(Oc3cccc(Cl)n3)ccc2F)C[C@@H](C(F)(F)F)O1 [Example 100, (4S,6S)-4-(5-((6-chloropyridin-2-yl)oxy)-2-fluorophenyl)-4-(fluoromethyl)-6-(trifluoromethyl)-5,6-dihydro-4H-1,3-oxazin-2-amine] | – | – | – | – | – | – | IC50 [1, 4]: 3.26 µM; IC50 [2, 5]: 1.57 µM; IC50 [3, 6]: 1930 µM |
| Cc1cc(Cl)cnc1C(=O)Nc1cc(F)c(F)c([C@]2(C)C[C@@H](C(F)(F)F)OC(N)=N2)c1 [Example 170, N-(3-((4S,6S)-2-amino-4-methyl-6-(trifluoromethyl)-5,6-dihydro-4H-1,3-oxazin-4-yl)-4,5-difluorophenyl)-5-chloro-3-methylpicolinamide] | – | – | – | – | – | – | IC50 [1, 4]: 0.014 µM; IC50 [2, 5]: 0.0095 µM; IC50 [3, 6]: 733 µM |
| C[C@@]1(c2cc(NC(=O)c3ncc(C#N)cc3Cl)cnc2F)C[C@@H](C(F)(F)F)OC(N)=N1 [Example 66, N-(5-((4S,6S)-2-amino-4-methyl-6-(trifluoromethyl)-5,6-dihydro-4H-1,3-oxazin-4-yl)-6-fluoropyridin-3-yl)-3-chloro-5-cyanopicolinamide] | – | – | – | – | 0.0605 | > 400 | IC50 [1, 9]: 0.0351 µM |
| C[C@@]1(c2cc(NC(=O)N3CC=CCC3)ccc2F)C[C@@H](C(F)(F)F)OC(N)=N1 [Example 123, N-(3-((4S,6S)-2-amino-4-methyl-6-(trifluoromethyl)-5,6-dihydro-4H-1,3-oxazin-4-yl)-4-fluorophenyl)-5,6-dihydropyridine-1(2H)-carboxamide] | – | – | – | – | – | – | IC50 [1, 4]: 0.908 µM; IC50 [2, 5]: 11.5 µM; IC50 [3, 6]: > 400 µM |
| NC1=N[C@](CF)(c2cc(N)cnc2F)C[C@@H](C(F)(F)F)O1 [Example 138, (4S,6S)-4-(5-amino-2-fluoropyridin-3-yl)-4-(fluoromethyl)-6-(trifluoromethyl)-5,6-dihydro-4H-1,3-oxazin-2-amine] | – | – | – | > 15.6 | > 40 | > 400 | – |

The next lines start with results.

| IC50 [1, 7] [µM] | IC50 ([2]; average) [µM] | IC50 ([3]; average) [µM] | IC50 [1, 8] [µM] | IC50 ([2]; average IC50) [µM] | IC50 ([3]; average IC50) [µM] | Compound | also measured |
| --- | --- | --- | --- | --- | --- | --- | --- |
| 0.038 | 0.081 | 634 | – | – | – | COc1cnc(C(=O)Nc2cc(C)c(F)c([C@]3(CF)C[C@@H](C(F)(F)F)OC(N)=N3)c2)c(C)n1 [Example 217, N-(3-((4S,6S)-2-amino-4-(fluoromethyl)-6-(trifluoromethyl)-5,6-dihydro-4H-1,3-oxazin-4-yl)-4-fluoro-5-methylphenyl)-5-methoxy-3-methylpyrazine-2-carboxamide] | – |
| 0.011 | 0.02 | > 400 | – | – | – | Cc1cc(C#N)cnc1C(=O)Nc1cc(C)c(F)c([C@]2(CF)C[C@@H](C(F)(F)F)OC(N)=N2)c1 [Example 219, N-(3-((4S,6S)-2-amino-4-(fluoromethyl)-6-(trifluoromethyl)-5,6-dihydro-4H-1,3-oxazin-4-yl)-4-fluoro-5-methylphenyl)-5-cyano-3-methylpicolinamide] | – |
| – | – | – | 0.0322 | 0.0418 | > 400 | COc1cc(C#N)cnc1C(=O)Nc1ccc(F)c([C@]2(CF)C[C@@H](C(F)(F)F)OC(N)=N2)c1 [Example 48, N-(3-((4S,6S)-2-amino-4-(fluoromethyl)-6-(trifluoromethyl)-5,6-dihydro-4H-1,3-oxazin-4-yl)-4-fluorophenyl)-5-cyano-3-methoxypicolinamide] | – |
| – | – | – | 0.0522 | 0.036 | > 400 | Cc1c(C(=O)Nc2ccc(F)c([C@]3(CF)C[C@@H](C(F)(F)F)OC(N)=N3)c2)nc2ccc(Cl)cn12 [Example 6, N-(3-((4S,6S)-2-amino-4-(fluoromethyl)-6-(trifluoromethyl)-5,6-dihydro-4H-1,3-oxazin-4-yl)-4-fluorophenyl)-6-chloro-3-methylimidazo[1,2-a]pyridine-2-carboxamide] | – |

— patent US9296734B2 (AMGEN INC., priority 2013, dated 2016)
